Assay [1] deals with hPDE4D (Homo sapiens, UniProt Q08499). Put plainly: In-vitro real-time enzyme-coupled spectrophotometric assay for PDE4 enzymes (hPDE4D).
The target of assay [2] is hPDE4B (Homo sapiens, UniProt Q07343). Briefly: In-vitro real-time enzyme-coupled spectrophotometric assay for PDE4 enzymes (hPDE4B).

We go through 34 compounds from patent US20120213758A1, “BIARYL PDE4 INHIBITORS FOR TREATING PULMONARY AND CARDIOVASCULAR DISORDERS” (DeCODE Genetics enf, priority 2007, published 2012).

Structures can show the parent of a compound that is named as a salt. Where two headings read alike, the source gives them in different places.

hPDE4D, sequence (Q08499 whole entry): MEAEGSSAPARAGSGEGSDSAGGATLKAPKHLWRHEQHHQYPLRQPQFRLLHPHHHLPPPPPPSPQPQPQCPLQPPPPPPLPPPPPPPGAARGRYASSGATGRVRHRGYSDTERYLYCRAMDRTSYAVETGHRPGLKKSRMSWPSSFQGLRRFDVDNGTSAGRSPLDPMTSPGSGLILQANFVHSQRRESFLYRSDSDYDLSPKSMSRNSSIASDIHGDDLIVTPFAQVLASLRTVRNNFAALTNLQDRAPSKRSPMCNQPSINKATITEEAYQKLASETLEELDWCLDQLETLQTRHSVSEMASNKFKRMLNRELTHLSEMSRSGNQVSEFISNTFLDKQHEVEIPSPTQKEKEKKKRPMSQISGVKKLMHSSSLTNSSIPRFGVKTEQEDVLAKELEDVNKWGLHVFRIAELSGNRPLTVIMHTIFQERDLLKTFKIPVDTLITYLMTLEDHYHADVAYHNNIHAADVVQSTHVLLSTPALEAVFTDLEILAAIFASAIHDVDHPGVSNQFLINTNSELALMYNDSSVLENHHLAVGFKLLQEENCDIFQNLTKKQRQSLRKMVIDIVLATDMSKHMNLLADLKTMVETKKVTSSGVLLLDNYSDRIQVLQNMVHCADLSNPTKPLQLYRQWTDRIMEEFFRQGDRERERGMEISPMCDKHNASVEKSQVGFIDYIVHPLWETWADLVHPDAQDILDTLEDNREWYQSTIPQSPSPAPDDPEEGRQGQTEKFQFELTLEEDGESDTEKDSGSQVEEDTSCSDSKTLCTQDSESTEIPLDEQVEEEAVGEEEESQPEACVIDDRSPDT
hPDE4B, sequence (Q07343 whole entry): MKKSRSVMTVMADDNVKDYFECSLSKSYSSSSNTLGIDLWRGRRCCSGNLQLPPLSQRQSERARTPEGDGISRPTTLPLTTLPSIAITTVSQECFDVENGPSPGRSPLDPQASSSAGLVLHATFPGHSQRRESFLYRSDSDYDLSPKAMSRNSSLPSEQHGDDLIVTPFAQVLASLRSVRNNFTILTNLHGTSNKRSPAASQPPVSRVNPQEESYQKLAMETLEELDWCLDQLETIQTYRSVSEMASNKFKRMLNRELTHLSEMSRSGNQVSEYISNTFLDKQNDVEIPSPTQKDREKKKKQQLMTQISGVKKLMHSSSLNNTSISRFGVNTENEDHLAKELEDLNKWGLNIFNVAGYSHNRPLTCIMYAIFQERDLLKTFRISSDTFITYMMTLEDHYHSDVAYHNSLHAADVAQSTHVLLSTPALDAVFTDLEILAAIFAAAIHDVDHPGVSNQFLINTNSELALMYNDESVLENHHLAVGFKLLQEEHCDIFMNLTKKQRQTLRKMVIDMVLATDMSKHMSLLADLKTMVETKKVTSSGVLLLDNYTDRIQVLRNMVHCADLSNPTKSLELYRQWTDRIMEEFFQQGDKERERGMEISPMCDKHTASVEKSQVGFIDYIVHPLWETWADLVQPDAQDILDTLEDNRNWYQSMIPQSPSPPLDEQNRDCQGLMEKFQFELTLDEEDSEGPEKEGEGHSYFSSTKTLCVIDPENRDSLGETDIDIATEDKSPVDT

On to `COc1ccc(Cc2cnc(N(C)CC(=O)O)nc2)c(F)c1-c1cccc(Cl)c1` [Example A-047, {[5-(3′-Chloro-2-fluoro-6-methoxy-biphenyl-3-ylmethyl)-pyrimidin-2-yl]-methyl-amino}-acetic acid], for which the IC50 in assay [1] and in assay [2] was less than 5 µM each time.

As for `COc1ccc(Cn2cnc3c(Cl)nc(N)nc32)cc1-c1cccc([N+](=O)[O-])c1` [Example A-003, 6-Chloro-9-(6-methoxy-3′-nitro-biphenyl-3-ylmethyl)-9H-purin-2-ylamine], the IC50 in assay [1] is less than 5 µM; in assay [2], 5 to 20 µM.

With `COc1ccc(Cc2ccc(N3CC[C@@H]3C(=O)O)nc2)c(F)c1-c1cccc(Cl)c1` [Example A-061, (R)-1-[5-(3′-chloro-2-fluoro-6-methoxy-biphenyl-3-ylmethyl)-pyridin-2-yl]-azetidine-2-carboxylic acid], the IC50 in assay [1] was less than 5 µM; in assay [2] it was 5 to 20 µM.

Regarding `COc1ccc(Cc2ccc(NC(N)=O)[n+]([O-])c2)c(F)c1-c1cccc(Cl)c1` [Example A-014], the IC50 in assay [1] was less than 5 µM; in assay [2], 5 to 20 µM.

For the compound `COc1ccc(Cc2cnc(N3CCC(C(=O)O)C3)nc2)c(F)c1-c1cccc(Cl)c1` (centres unmarked) [Example A-044, 1-[5-(3′-Chloro-2-fluoro-6-methoxy-biphenyl-3-ylmethyl)-pyrimidin-2-yl]-pyrrolidine-3-carboxylic acid], the IC50 in assay [1] is less than 5 µM; in assay [2], 20 to 40 µM.

Consider `COc1ccc(Cc2ccc(O)nc2)c(F)c1-c1cccc(Cl)c1` [Example A-036], for which the IC50 in assay [1] and in assay [2] was less than 5 µM in each case.

As to `FC(F)Oc1ccc(Cc2ccc(-c3nnn[nH]3)nc2)cc1-c1cccc(Cl)c1` [Example A-076, 5-(3′-Chloro-6-difluoromethoxy-biphenyl-3-ylmethyl)-2-(1H-tetrazol-5-yl)-pyridine hydrochloride salt], the IC50 in assay [1] and in assay [2] was less than 5 µM throughout.

Take `CCNC(=O)Nc1ccc(Cc2ccc(OC)c(-c3cccc(Cl)c3)c2F)c[n+]1O` [Example B-081, 1-[5-(3′-Chloro-2-fluoro-6-methoxy-biphenyl-3-ylmethyl)-1-oxy-pyridin-2-yl]-3-ethyl-urea]: the IC50 in assay [1] and in assay [2] was less than 5 µM throughout.

Consider `CCOC(=O)C(=O)NCc1ccc(Cc2ccc(OC)c(-c3cccc(Cl)c3)c2F)cn1` [Example A-048, N-[5-(3′-Chloro-2-fluoro-6-methoxy-biphenyl-3-ylmethyl)-pyridin-2-ylmethyl]-oxalamic acid ethyl ester], for which the IC50 in assay [1] and in assay [2] was less than 5 µM in each case.

On to `CCOC(=O)CCCNC(=O)Nc1nnc(Cc2ccc(OC)c(-c3cccc(Cl)c3)c2F)s1` [Example A-030, 4-{3-[5-(3′-Chloro-2-fluoro-6-methoxy-biphenl-3-ylmethyl)-[1,3,4]thiadiazol-2-yl]-ureido}-butyric acid ethyl ester], for which the IC50 is less than 5 µM in assay [1] and 5 to 20 µM in assay [2].

On to `COc1ccc(Cc2ccc(N3CCC[C@H]3C(=O)O)nc2)c(F)c1-c1cccc(Cl)c1` [Example A-063, (S)-1-[5-(3′-chloro-2-fluoro-6-methoxy-biphenyl-3-ylmethyl)-pyridin-2-yl]-pyrrolidine-2-carboxylic acid], for which the IC50 in assay [1] and in assay [2] was less than 5 µM throughout.

Turning to `COc1ccc(Cn2ccc(C(=O)O)cc2=O)cc1-c1cccc([N+](=O)[O-])c1` [Example A-007, 1-(6-Methoxy-3′-nitro-biphenyl-3-ylmethyl)-2-oxo-1,2-dihydro-pyridine-4-carboxylic acid], the IC50 in assay [1] and in assay [2] was 5 to 20 µM in each case.

On to `COc1ccc(Cc2ccc(C(=O)O)cc2)c(F)c1-c1cccc(C(C)=O)c1` [Example A-019, 4-(3′-Acetyl-2-fluoro-6-methoxy-biphenyl-3-ylmethyl)-benzoic acid], for which the IC50 in assay [1] was less than 5 µM; in assay [2] it was 5 to 20 µM.

In the case of `COc1ccc(Cc2ccc3cnc(C(=O)O)n3c2)c(F)c1-c1cccc(Cl)c1` [Example A-051, 6-(3′-Chloro-2-fluoro-6-methoxy-biphenyl-3-ylmethyl)-imidazo[1,5-a]pyridine-3-carboxylic acid hydrochloride], the IC50 in assay [1] and in assay [2] was less than 5 µM in each case.

`COc1ccc(Cc2ccc(N3CCCC(C(=O)O)C3)nc2)c(F)c1-c1cccc(Cl)c1` (centres unmarked) [Example A-070, 5′-(3′-Chloro-2-fluoro-6-methoxy-biphenyl-3-ylmethyl)-3,4,5,6-tetrahydro-2H-[1,2′]bipyridinyl-3-carboxylic acid]: the IC50 was less than 5 µM in assay [1] and 5 to 20 µM in assay [2].

Regarding `COc1ccc(Cc2ccc(N(CC(=O)O)C(C)=O)nc2)c(F)c1-c1cccc(Cl)c1` [Example A-037, {acetyl-[5-(3′-chloro-2-fluoro-6-methoxy-biphenyl-3-ylmethyl)-pyridin-2-yl]-amino}-acetic acid], the IC50 in assay [1] and in assay [2] was less than 5 µM each time.

With `COc1ccc(Cc2ccc(N(C)CC(=O)O)nc2)c(F)c1-c1cccc(Cl)c1` [Example A-074, {[5-(3′-chloro-2-fluoro-6-methoxy-biphenyl-3-ylmethyl)-pyridin-2-yl]-methyl-amino}-acetic acid], the IC50 in assay [1] and in assay [2] was less than 5 µM throughout.

For the compound “1-[5-(3′-Chloro-2-fluoro-6-methoxy-biphenyl-3-ylmethyl)-pyrimitlin-2-yl]-piperidine-2-carboxylic acid [Example A-041]”, the IC50 in assay [1] (read-out: hPDE4D activity, enzyme-coupled NADH assay, absorbance at 340 nm) is less than 5 µM; in assay [2] (read-out: hPDE4B activity, enzyme-coupled NADH assay, absorbance at 340 nm) it was 5 to 20 µM.

With `COc1ccc(Cc2ccc3nc(C(=O)O)cn3c2)c(F)c1-c1cccc(Cl)c1` [Example A-043, 6-(3′-Chloro-2-fluoro-6-methoxy-biphenyl-3-ylmethyl)-imidazo[1,2-a]pyridine-2-carboxylic acid], the IC50 is less than 5 µM in assay [1] and 5 to 20 µM in assay [2].

On to `COc1ccc(Cc2cnc(NS(N)(=O)=O)nc2)c(F)c1-c1cccc(C(C)=O)c1` [Example A-017], for which the IC50 in assay [1] and in assay [2] was less than 5 µM in each case.

For `COc1ccc(Cc2cnc(N3CC(C(=O)O)C3)nc2)c(F)c1-c1cccc(Cl)c1` [Example A-053, 1-[5-(3′-Chloro-2-fluoro-6-methoxy-biphenyl-3-ylmethyl)-pyrimidin-2-yl]-azetidine-3-carboxylic acid], the IC50 in assay [1] is less than 5 µM; in assay [2] it was 5 to 20 µM.

As to `COc1ccc(Cc2ccc(C(=O)N3CCC(C(=O)O)CC3)nc2)c(F)c1-c1cccc(Cl)c1` [Example A-034, 1-[5-(3′-Chloro-2-fluoro-6-methoxy-biphenyl-3-ylmethyl)-pyridine-2-carbonyl]-piperidine-4-carboxylic acid], the values for the IC50 in assay [1] and in assay [2] were less than 5 µM and 20 to 40 µM, respectively.

`COc1ccc(Cc2ccc(C(=O)O)nc2)c(F)c1-c1cccc(C(C)=O)c1` [Example A-021, 5-(3′-Acetyl-2-fluoro-6-methoxy-biphenyl-3-ylmethyl)-pyridine-2-carboxylic acid]: the IC50 in assay [1] and in assay [2] was 5 to 20 µM each time.

Take `COC(=O)c1ccc(Cc2ccc(OC(F)F)c(-c3cccc(Cl)c3)c2)cn1` [Example A-075, 5-(3′-Chloro-6-difluoromethoxy-biphenyl-3-ylmethyl)-pyridine-2-carboxylic acid methyl ester]: the IC50 in assay [1] and in assay [2] was less than 5 µM throughout.

Take `COc1ccc(Cc2cnc(NC(N)=O)[n+]([O-])c2)c(F)c1-c1cccc(Cl)c1` [Example A-015]: the IC50 in assay [1] and in assay [2] was less than 5 µM in each case.

Regarding `COc1ccc(Cc2ccc(-c3nnn[nH]3)nc2)c(F)c1-c1cccc(Cl)c1` [Example A-042, 5-(3′-Chloro-2-fluoro-6-methoxy-biphenyl-3-ylmethyl)-2-(1H-tetrazol-5-yl)-pyridine], the IC50 in assay [1] and in assay [2] was less than 5 µM in each case.

`COc1ccc(Cc2ccc(NC(=O)NCCC(=O)O)nc2)c(F)c1-c1cccc(Cl)c1` [Example A-032]: the IC50 in assay [1] was less than 5 µM; in assay [2], 5 to 20 µM.

As to `COC(=O)c1ccc(Cc2ccc(OC)c(-c3cccc(C(C)=O)c3)c2F)cc1` [Example A-018, 4-(3′-Acetyl-2-fluoro-6-methoxy-biphenyl-3-ylmethyl)-benzoic acid methyl ester], the IC50 in assay [1] is less than 5 µM; in assay [2], 20 to 40 µM.

Regarding `COc1ccc(Cc2cnc(N3CCC3C(=O)O)nc2)c(F)c1-c1cccc(Cl)c1` (centres unmarked) [Example A-049, 1-[5-(3′-Chloro-2-fluoro-6-methoxy-biphenyl-3-ylmethyl)-pyrimidin-2-yl]-azetidine-2-carboxylic acid], the IC50 in assay [1] and in assay [2] was less than 5 µM each time.

For the compound `COc1ccc(Cn2cnc(C(=O)O)c2)c(F)c1-c1cccc(Cl)c1` [Example A-059, 1-(3′-Chloro-2-fluoro-6-methoxy-biphenyl-3-ylmethyl)-1H-imidazole-4-carboxylic acid], the IC50 was less than 5 µM in assay [1] and 5 to 20 µM in assay [2].

`COc1ccc(Cc2ccc(N3CCC[C@H]3C(=O)O)nc2)cc1-c1cccc(Cl)c1` [Example A-068, (S)-1-[5-(3′-chloro-6-methoxy-biphenyl-3-ylmethyl)-pyridin-2-yl]-pyrrolidine-2-carboxylic acid]: the IC50 in assay [1] and in assay [2] was less than 5 µM throughout.

Regarding `COc1ccc(Cc2ccc(NCC(=O)O)nc2)c(F)c1-c1cccc(Cl)c1` [Example A-035, [5-(3′-chloro-2-fluoro-6-methoxy-biphenyl-3-ylmethyl)-pyridin-2-ylamino]-acetic acid], the IC50 in assay [1] and in assay [2] was less than 5 µM throughout.

For the compound `COC(=O)c1ccc(Cc2ccc(OC)c(-c3cccc(C(C)=O)c3)c2F)cn1` [Example A-020, 5-(3′-Acetyl-2-fluoro-6-methoxy-biphenyl-3-ylmethyl)-pyridine-2-carboxylic acid methyl ester], the IC50 in assay [1] and in assay [2] was less than 5 µM each time.

In the case of `COc1ccc(Cc2ccc(NS(N)(=O)=O)nc2)c(F)c1-c1cccc(Cl)c1` [Example A-010], the IC50 in assay [1] and in assay [2] was less than 5 µM each time.
